Laboratory results from patent US5006515A, “Pharmaceuticals, phosphorus-containing 2-isoxazolines and isoxazoles contained therein” (Hoechst Aktiengesellschaft, priority 1987, dated 1991).
pIC50: −log10 of the molar value.

Legend:
peritoneal macrophages [1] = assay: Activation of peritoneal macrophages: chemiluminescence (oxidative metabolism); details: single i.p. dose of 40 mg/kg; maximum activation by Example 34 = 100%; 40 mg/kg
peritoneal macrophages [2] = assay: Stimulation of the release of lysosomal enzymes from peritoneal macrophages (exocytosis); details: single i.p. dose of 40 mg/kg; maximum activation by Example 34 = 100%; 40 mg/kg
leucine aminopeptidase = assay: Inhibition of leucine aminopeptidase; type: biochemical; details: substrate L-leucine 4-nitroanilide
Protocol: (§1) The activity of the enzyme aminopeptidase B was determined photometrically using the substrate L-lysine 2-naphthylamide at room temperature. […] In the same way, the inhibition of leucine aminopeptidase was investigated using L-leucine 4-nitroanilide as enzyme substrate. The IC50 values are compiled in Table 6.

active Arthus reaction = assay: Active Arthus reaction in the rat; type: in vivo, Sprague-Dawley rats; details: 4 h after ovalbumin challenge; for Active Arthus reaction % change / change in vivo at 50 mg/kg: oral dose 50 mg/kg
Protocol: The experimental animals used were female and male Sprague-Dawley rats with a body weight between 80 and 100 g which received subcutaneous injections into the tail-head of 0.5 ml of an emulsion of pertussis vaccine and ovalbumin in liquid paraffin. After two weeks, the rats were divided into groups each of 8 animals. 24 hours and 1 hour before induction of the Arthus reaction by injection of 0.1 ml of a 0.4% strength ovalbumin solution into the right hind paw, the particular test substance or the pure vehicle (positive control) was administered orally, sodium chloride solution was injected into the left paw. One group of unsensitized animals (negative control group) was likewise treated with ovalbumin in order to be able to rule out nonspecific reactions to the protein. The parameter used for measuring the action of the product was the percentage change in the increase in paw volume compared with that in the control group which was sensitized but untreated (positive control) 4 hours after ovalbumin challenge, when the swelling had reached its maximum.

[3] = tested on: DTH reaction to sheep erythrocytes; assay: Delayed-type hypersensitivity (DTH) reaction to sheep erythrocytes; type: in vivo, female NMRI mice; details: single i.p. dose of 40 mg/kg, maximal stimulation by Example 34 = 100%
Protocol: Groups each comprising 5 female NMRI mice with a body weight of 18 to 20 g were formed, and each animal was given 10^6 or 10^9 sheep red blood cells intravenously. Sheep erythrocytes are regarded in immunology as a standard antigen with which it is possible to check cellular and humoral immunoreactivity, especially the functioning of the T-cell-dependent component of the immune system, the so-called T-helper cells. The test substances were administered, in intraperitoneal doses of 5 to 100 mg/kg in physiological saline, at the same time as the antigen. After 5 days, each animal was given an injection of 2×10^8 sheep erythrocytes into the footpad. 24 hours later, the swelling of the foot was measured. The foot swelling is induced by a skin reaction of the delayed type (DTH reaction) and, as is known to those skilled in the art, is a measure of the cellular immune response (J. Immunol. 101 (1968), 830-845). The test results obtained with the product of Example 34, by way of example, are compiled in Table 7 and illustrate that the compounds of the formula I--administered prophylactically--are able to increase the cellular immune response after immunization with the antigen by stimulation of the T-cell system, with the stimulant action reaching its optimum in this experiment at a dose of 25 mg/kg.

aminopeptidase B = aminopeptidase B (Homo sapiens, UniProt Q9H4A4); assay: Inhibition of aminopeptidase B; type: biochemical
Chain of aminopeptidase B (Q9H4A4 whole entry, species assumed): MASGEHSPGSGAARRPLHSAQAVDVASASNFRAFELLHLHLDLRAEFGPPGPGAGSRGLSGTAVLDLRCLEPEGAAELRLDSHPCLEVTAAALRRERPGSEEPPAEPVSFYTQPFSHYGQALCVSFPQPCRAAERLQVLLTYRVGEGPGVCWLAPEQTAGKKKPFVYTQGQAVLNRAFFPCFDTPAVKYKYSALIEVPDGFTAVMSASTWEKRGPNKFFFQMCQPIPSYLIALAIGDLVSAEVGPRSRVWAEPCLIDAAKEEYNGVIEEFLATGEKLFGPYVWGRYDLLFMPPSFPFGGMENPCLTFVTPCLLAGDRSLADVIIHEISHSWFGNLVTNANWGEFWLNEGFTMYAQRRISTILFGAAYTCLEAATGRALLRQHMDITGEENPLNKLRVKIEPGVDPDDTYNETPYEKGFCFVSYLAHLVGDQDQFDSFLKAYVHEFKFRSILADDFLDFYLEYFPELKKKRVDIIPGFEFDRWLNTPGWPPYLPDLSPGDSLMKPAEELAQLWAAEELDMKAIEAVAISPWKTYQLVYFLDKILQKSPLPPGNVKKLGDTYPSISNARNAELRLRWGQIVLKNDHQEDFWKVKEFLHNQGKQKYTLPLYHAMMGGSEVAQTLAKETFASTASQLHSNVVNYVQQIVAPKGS
Protocol: as §1

Acute toxicity = assay: Acute toxicity; set-up: species or system mice; details: mouse, in vivo, single dose, mortality within 7 days
Protocol: The LD50 values were determined by the standard method via the mortality occurring within 7 days in NMRI (Naval Medical Research Institute) mice (6 animals per dose) after a single intraperitoneal (i.p.) or intravenous (i.v.) dose.

cGvH reaction = assay: Chronic graft-versus-host (cGvH) reaction in the mouse; type: in vivo, female mice of (DBA/2×C57Bl/6)F1 generation; details: 6 weeks
Text: Graft-versus-host disease, which derives from an immune reaction originating from the transplant and directed against the host tissue, is characterized, in the acute form which almost always has a fatal outcome, by enlargement of the spleen, swelling of the liver, hypertrophy of the lymph nodes, hemolytic anemia, lowered immunoglobulin and complement levels and diminished immunoreactivity. The chronic form of the disease, which has a somewhat milder course, leads to lymphadenopathy, immune complex glomerulonephritis and excessive formation of non-organ-specific autoantibodies. A syndrome with similar features is systemic lupus erythematosus (SLE) which is likewise one of the autoimmune diseases.
The investigation of the compounds used according to the invention for the progress of the cGvH reaction induced in female mice of (DBA/2×C57Bl/6)F1 generation by two injections of spleen and thymus cells mixed together are carried out in the experimental system described by S. Popovic and R. R. Bartlett (Agents and Actions 21 (1987), 284-286), with 5×10^7 DBA/2 cells, likewise obtained from female donor animals, being administered intravenously in 0.2 ml of culture medium each time at a time interval of 7 days. For a reliable assessment of the outbreak and course of the disease, a group of healthy animals was included as negative control in all experiments. The 6-week oral treatment of the animals with the disease started on day 21 after the first donor cell injection, with the test substances or the pure vehicle (positive control) being administered once a day. The vehicle used was an aqueous CMC (carboxymethylcellulose sodium salt) solution containing 100 mg of CMC per 1. The volume administered was 10 ml per kg body weight. The individual experimental groups each comprised 10 animals.
The action of the products was assessed on the basis of the inhibition of proteinuria and the cGvH index. As a consequence of the destruction of nephrons by deposition of immune complexes on the basement membranes of the glomeruli, the animals with the disease developed pronounced proteinuria, which correlates with the extent of glomerulonephritis and can easily be quantified via the increase in the amount of protein excreted with the urine. The second parameter measured, the cGvH index, relates to the great enlargement of the spleen (splenomegaly) caused by the cGvH reaction. It is defined as the quotient of the product of the spleen and body weights of the animals with the disease and of the product of the corresponding weights of healthy untreated animals on the negative control group, and is a reliable measure of the intensity of the disease (the greater this index, the more severe the disease).

COP(=O)(OC)C1CC(c2ccccc2)=NO1 (single isomer, unassigned) [Example 60a, Dimethyl (+)- and (-)-3-phenyl-2-isoxazolin-5-ylphosphonate]
Relative stimulation of macrophage activity: Chemiluminescence (peritoneal macrophages [1]): 51% | Relative stimulation of macrophage activity: Exocytosis (peritoneal macrophages [2]): 88%

COP(=O)(OC)C1CC(c2ccccc2)=NO1 (single isomer, unassigned) [Example 60b, Dimethyl (+)- and (-)-3-phenyl-2-isoxazolin-5-ylphosphonate]
Relative stimulation of macrophage activity: Chemiluminescence (peritoneal macrophages [1]): 24% | Relative stimulation of macrophage activity: Exocytosis (peritoneal macrophages [2]): 63%

O=P(O)(O)C1CC(c2ccccc2)=NO1 (single isomer, unassigned; (+)) [Example 61, (+)-3-Phenyl-2-isoxazolin-5-ylphosphonic acid]
Leucine aminopeptidase IC50 (leucine aminopeptidase): 26 μug/ml | Active Arthus reaction % change (active Arthus reaction): +52% | Relative stimulation of the DTH reaction ([3]; 40 mg/kg): 108%

O=P(O)(O)C1CC(c2ccccc2)=NO1 (single isomer, unassigned; (-)) [Example 62, (-)-3-Phenyl-2-isoxazolin-5-ylphosphonic acid]
Leucine aminopeptidase IC50 (leucine aminopeptidase): 130 μug/ml | Active Arthus reaction % change (active Arthus reaction): +16% | Relative stimulation of the DTH reaction ([3]; 40 mg/kg): 83%

COP(C)(=O)C1CC(c2ccccc2)=NO1 (centres unmarked) [Example 13, Methyl 3-phenyl-2-isoxazolin-5-yl(P-methyl)phosphinate]
pIC50 (aminopeptidase B): 3.38 | LD50 at 168 h (Acute toxicity; iv): > 200 mg/kg | change in vivo at 50 mg/kg (active Arthus reaction; Rattus norvegicus): -13%

O=P(O)(O)C1CC(c2ccccc2)=NO1 (centres unmarked) [Example 35]
Leucine aminopeptidase IC50 (leucine aminopeptidase): 57 μug/ml | LD50 at 168 h (Acute toxicity; iv): > 200 mg/kg | change in vivo at 35 mg/kg (active Arthus reaction; Rattus norvegicus, po, 4 h, oral dose 35 mg/kg, read-out: Active Arthus reaction % change): -16% | Relative stimulation of the DTH reaction ([3]; 40 mg/kg): 98%

O=P(O)(O)C1CC(c2ccccc2)=NO1 (centres unmarked) [Example 36]
Leucine aminopeptidase IC50 (leucine aminopeptidase): 56 μug/ml | Relative stimulation of the DTH reaction ([3]; 40 mg/kg): 102%

O=P(O)(O)C1CC(c2ccccc2)=NO1 (centres unmarked) [Example 37]
Leucine aminopeptidase IC50 (leucine aminopeptidase): 52 μug/ml | Relative stimulation of the DTH reaction ([3]; 40 mg/kg): 77%

O=C(C1=NOC(P(=O)(O)O)C1)c1ccccc1 (centres unmarked) [Example 53]
Leucine aminopeptidase IC50 (leucine aminopeptidase): 65 μug/ml | Relative stimulation of the DTH reaction [3]: 68%

COc1ccc(-c2cc(P(=O)(O)O)on2)cc1 [Example 54]
% inhibition Proteinuria (cGvH reaction; oral dose 15 mg/kg/day): 27% | % inhibition cGvH index (cGvH reaction; oral dose 15 mg/kg/day): 16% | % inhibition Proteinuria (cGvH reaction; oral dose 50 mg/kg/day): 64% | % inhibition cGvH index (cGvH reaction; oral dose 50 mg/kg/day): 18% | LD50 at 168 h (Acute toxicity; iv): > 200 mg/kg | change in vivo at 40 mg/kg (active Arthus reaction; Rattus norvegicus, po, 4 h, oral dose 40 mg/kg): -57%

CP(=O)(O)C1CC(c2ccccc2)=NO1 (centres unmarked) [Example 63, 3-Phenyl-2-isoxazolin-5-yl(P-methyl)phosphinic acid]
% inhibition Proteinuria (cGvH reaction; oral dose 15 mg/kg/day): 76% | % inhibition cGvH index (cGvH reaction; oral dose 15 mg/kg/day): 54% | % inhibition Proteinuria (cGvH reaction; oral dose 30 mg/kg/day): 61% | % inhibition cGvH index (cGvH reaction; oral dose 30 mg/kg/day): 48% | LD50 at 168 h (Acute toxicity; ip): 300 to 600 mg/kg | change in vivo at 50 mg/kg (active Arthus reaction; Rattus norvegicus, po, 4 h): -48%
